Measured values reported in patent publication US20230159527A1, “COMPOUNDS AS BCL-2 INHIBITORS” (Fochon Pharmaceuticals, Ltd., priority 2020, published 2023).
pIC50: −log10 of the molar value. Like-named read-outs stand apart in the source and are kept apart here.

What was measured:
Assay type in all cases: cell-based
RS4;11-BCL-2 G101V cells = assay: Cell proliferation assay, engineered RS4;11 cells stably overexpressing BCL-2 G101V (MTS, 168 h); settings: read-out: RS4, 11 BCL2- G101V
Description: (§1) MTS testing kit was purchased from Promega (Madison, Wis., USA). The RPMI-1640, Fetal bovine serum and Penicillin-Streptomycin were purchased from BI (Biological Industries, Beit Haemek, Israel). Puromycin was purchased from Beyotime (shanghai, China). Dimethyl sulfoxide (DMSO) was purchased from Sigma (St. Louis, Mo., USA). RS4;1l-BCL-2 G101V and RS4;11-BCL-2 F104L cells were cultured in RPM11640 supplemented with 1 ug/mL puromycin, 100 U/mL Penicillin-Streptomycin and 10% FBS.
(§2) To investigate whether a compound is able to inhibit the activity of BCL-2 mutation in cells, a mechanism-based assay using engineered cell lines stably overexpressing BCL-2 mutation ([…] and […]) was developed. In this assay, the inhibition of BCL-2 mutation was reflected by the inhibition of cell proliferation of RS4;11-BCL-2 G101V and RS4;11-BCL-2 F104L cells. Cells were plated into 96-well plates at optimized cell density (RS4;11-BCL-2 G101V: 5000 cells/well; RS4;11-BCL-2 F104L: 5000 cells/well). Plates were incubated at 37° C., with 5% CO2 for 4 h. Compounds were serially diluted to the final-concentrations of 10000, 3333.3, 1111.1, 370.4, 123.5, 41.2, 13.7, 4.6 and 1.4 nM and added to the plates. Plates were incubated at 37° C., with 5% CO2 for 168 h. 20 μl MTS was added into each well and the plates were incubated at 37° C., with 5% CO2 exactly for 2 h. The absorbance was measured by a microplate reader at 490 nm. IC50 values were calculated using GraphPad Prism 5.0 software.

Toledo cells = assay: Cell proliferation assay, Toledo cells (MTS, 72 h); settings: Homo sapiens, Toledo cells, MTS, read-out: Toledo IC50
How it was run: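 Toledo cells (30000/well, RPMI-1640 with 10% FBS) were preincubated for 4 h. They were then exposed to nine compound concentrations from 10000 to 1.5 nM for 72 h at 37 °C, 5% CO2. MTS was added for 2 h and absorbance read at 490 nm to give IC50.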

RS4;11-BCL-2 F104L cells = assay: Cell proliferation assay, engineered RS4;11 cells stably overexpressing BCL-2 F104L (MTS, 168 h); settings: Homo sapiens, read-out: RS4, 11 BCL2-F104L
Description: as §1, §2

SMILES | pIC50 (RS4;11-BCL-2 G101V cells; Homo sapiens, RS4-11, 168 h) | pIC50 (Toledo cells) | pIC50 (RS4;11-BCL-2 G101V cells) | pIC50 (RS4;11-BCL-2 F104L cells)
CCOc1nc2[nH]ccc2cc1Oc1cc(N2CCC3(CC2)CN([C@H]2CCC[C@H]2c2ccccc2C(C)C)C3)ccc1C(=O)NS(=O)(=O)c1ccc(NC[C@H]2CC[C@](C)(O)CC2)c([N+](=O)[O-])c1 (single isomer, unassigned) [Example D-92, 2-((6-ethoxy-1H-pyrrolo[2,3-b]pyridin-5-yl)oxy)-N-((4-((((1r,4r)-4-hydroxy-4-methylcyclohexyl)methyl)amino)-3-nitrophenyl)sulfonyl)-4-(2-((1S,2S or 1R,2R)-2-(2-isopropylphenyl)cyclopentyl)-2,7-diazaspiro[3.5]nonan-7-yl)benzamide] | 9.00 | 9.00 |  | 
CO[C@@H](C)COc1nc2[nH]ccc2cc1Oc1cc(N2CCC3(CC2)CC(N2CCC[C@H]2c2ccccc2C(C)C)C3)ccc1C(=O)NS(=O)(=O)c1cc2c(c([N+](=O)[O-])c1)N[C@@H]([C@H]1CC[C@](C)(O)CC1)CO2 (single isomer, unassigned) [Example D-202, N-(((S)-3-((1r,4S)-4-hydroxy-4-methylcyclohexyl)-5-nitro-3,4-dihydro-2H-benzo[b][1,4]oxazin-7-yl)sulfonyl)-4-(2-((R or S)-2-(2-isopropylphenyl)pyrrolidin-1-yl)-7-azaspiro[3.5]nonan-7-yl)-2-((6-((S)-2-methoxypropoxy)-1H-pyrrolo[2,3-b]pyridin-5-yl)oxy)benzamide] | 8.70 | 9.00 |  | 
COCCOc1nc2[nH]ccc2cc1Oc1cc(N2CCC3(CC2)CN([C@H]2CCC[C@H]2c2ccccc2C(C)C)C3)ccc1C(=O)NS(=O)(=O)c1cc2c(c([N+](=O)[O-])c1)N[C@@H]([C@H]1CC[C@](C)(O)CC1)CO2 (single isomer, unassigned) [Example D-75b, N-(((S)-3-((1r,4S)-4-hydroxy-4-methylcyclohexyl)-5-nitro-3,4-dihydro-2H-benzo[b][1,4]oxazin-7-yl)sulfonyl)-4-(2-((1S,2S or 1R,2R)-2-(2-isopropylphenyl)cyclopentyl)-2,7-diazaspiro[3.5]nonan-7-yl)-2-((6-(2-methoxyethoxy)-1H-pyrrolo[2,3-b]pyridin-5-yl)oxy) benzamide] | 7.80 | 9.00 |  | 
CC(C)c1ccccc1[C@@H]1CCC[C@@H]1N1CC2(CCN(c3ccc(C(=O)NS(=O)(=O)c4ccc(NC[C@H]5CC[C@](C)(O)CC5)c([N+](=O)[O-])c4)c(Oc4cnc5[nH]cc(F)c5c4)c3)CC2)C1 (single isomer, unassigned) [Example D-34a, 2-((3-fluoro-1H-pyrrolo[2,3-b]pyridin-5-yl)oxy)-N-((4-((1r,4r)-4-hydroxy-4-methylcyclohexyl)methyl)amino)-3-nitrophenyl) sulfonyl)-4-(2-((1S,2S or 1R,2R)-2-(2-isopropylphenyl)cyclopentyl)-2,7-diazaspiro[3.5]nonan-7-yl)benzamide] |  | 9.00 | 7.74 | 
CC(C)c1ccccc1[C@@H]1CN(C(=O)C2CC2)CCN1C1CC2(CCN(c3ccc(C(=O)NS(=O)(=O)c4cc5c(c([N+](=O)[O-])c4)N[C@@H]([C@H]4CC[C@](C)(O)CC4)CO5)c(Oc4cnc5[nH]cc(F)c5c4)c3)CC2)C1 (single isomer, unassigned) [Example D-82, 4-(2-((R or S)-4-(cyclopropanecarbonyl)-2-(2-isopropylphenyl)piperazin-1-yl)-7-azaspiro[3.5]nonan-7-yl)-2-((3-fluoro-1H-pyrrolo[2,3-b]pyridin-5-yl)oxy)-N-(((S)-3-((1r,4S)-4-hydroxy-4-methylcyclohexyl)-5-nitro-3,4-dihydro-2H-benzo[b][1,4]oxazin-7-yl)sulfonyl)benzamide] | 7.72 | 9.00 |  | 
CC(C)c1ccccc1[C@@H]1CCCN1C1CC2(CCN(c3ccc(C(=O)NS(=O)(=O)c4cc5c(c([N+](=O)[O-])c4)N[C@@H]([C@H]4CC[C@](C)(O)CC4)CO5)c(Oc4cc5cc[nH]c5nc4OCCN4CCOCC4)c3)CC2)C1 (single isomer, unassigned) [Example D-63, N-(((S)-3-((1r,4S)-4-hydroxy-4-methylcyclohexyl)-5-nitro-3,4-dihydro-2H-benzo[b][1,4]oxazin-7-yl)sulfonyl)-4-(2-((R or S)-2-(2-isopropylphenyl)pyrrolidin-1-yl)-7-azaspiro[3.5]nonan-7-yl)-2-((6-(2-morpholinoethoxy)-1H-pyrrolo[2,3-b]pyridin-5-yl)oxy) benzamide] | 9.00 | 9.00 |  | 
CNCCOc1nc2[nH]ccc2cc1Oc1cc(N2CCC3(CC2)CC(N2CCC[C@H]2c2ccccc2C(C)C)C3)ccc1C(=O)NS(=O)(=O)c1cc2c(c([N+](=O)[O-])c1)N[C@@H]([C@H]1CC[C@](C)(O)CC1)CO2 (single isomer, unassigned) [Example D-59, N-(((S)-3-((1r,4S)-4-hydroxy-4-methylcyclohexyl)-5-nitro-3,4-dihydro-2H-benzo[b][1,4]oxazin-7-yl)sulfonyl)-4-(2-((R or S)-2-(2-isopropylphenyl)pyrrolidin-1-yl)-7-azaspiro[3.5]nonan-7-yl)-2-((6-(2-(methylamino)ethoxy)-1H-pyrrolo[2,3-b]pyridin-5-yl)oxy)benzamide] | 7.82 | 9.00 |  | 
CC(C)c1ccccc1[C@@H]1CCCN1C1CC2(CCN(c3ccc(C(=O)NS(=O)(=O)c4cc5c(c([N+](=O)[O-])c4)N[C@@H]([C@H]4CC[C@](C)(O)CC4)CO5)c(Oc4cc5cc[nH]c5nc4OC4COC4)c3)CC2)C1 (single isomer, unassigned) [Example D-72, N-(((S)-3-((1r,4S)-4-hydroxy-4-methylcyclohexyl)-5-nitro-3,4-dihydro-2H-benzo[b][1,4]oxazin-7-yl)sulfonyl)-4-(2-((R or S)-2-(2-isopropylphenyl)pyrrolidin-1-yl)-7-azaspiro[3.5]nonan-7-yl)-2-((6-(oxetan-3-yloxy)-1H-pyrrolo[2,3-b]pyridin-5-yl)oxy) benzamide] | 7.77 | 9.00 |  | 
CC(C)c1ccccc1[C@@H]1CCCN1C1CC2(CCN(c3ccc(C(=O)NS(=O)(=O)c4cc5c(c([N+](=O)[O-])c4)N[C@@H]([C@H]4CC[C@](C)(O)CC4)CO5)c(Oc4cc5cc[nH]c5nc4OC[C@H]4COCCO4)c3)CC2)C1 (single isomer, unassigned) [Example D-252, 2-((6-(((R)-1,4-dioxan-2-yl)methoxy)-1H-pyrrolo[2,3-b]pyridin-5-yl)oxy)-N-(((S)-3-((1r,4S)-4-hydroxy-4-methylcyclohexyl)-5-nitro-3,4-dihydro-2H-benzo[b][1,4]oxazin-7-yl)sulfonyl)-4-(2-((R or S)-2-(2-isopropylphenyl)pyrrolidin-1-yl)-7-azaspiro[3.5]nonan-7-yl)benzamide] |  | 9.00 |  | 9.00
COc1nc2[nH]cc(F)c2cc1Oc1cc(N2CCC3(CC2)CN([C@H]2CCC[C@H]2c2ccccc2C(C)C)C3)ccc1C(=O)NS(=O)(=O)c1ccc(NC[C@H]2CC[C@](C)(O)CC2)c([N+](=O)[O-])c1 (single isomer, unassigned) [Example D-109, 2-((3-fluoro-6-methoxy-1H-pyrrolo [2,3-b]pyridin-5-yl)oxy)-N-((4-((((1r,4r)-4-hydroxy-4-methylcyclohexyl)methyl)amino)-3-nitrophenyl)sulfonyl)-4-(2-((1S,2S or 1R,2R)-2-(2-isopropylphenyl)cyclopentyl)-2,7-diazaspiro[3.5]nonan-7-yl)benzamide] |  | 9.00 |  | 8.10
Cc1nc2[nH]cc(F)c2cc1Oc1cc(N2CCC3(CC2)CN([C@H]2CCC[C@H]2c2ccccc2C(C)C)C3)ccc1C(=O)NS(=O)(=O)c1cnc(NC[C@H]2CC[C@](C)(O)CC2)c([N+](=O)[O-])c1 (single isomer, unassigned) [Example A-156, 2-((3-fluoro-6-methyl-1H-pyrrolo[2,3-b]pyridin-5-yl)oxy)-N-((6-((((1r,4r)-4-hydroxy-4-methylcyclohexyl)methyl)amino)-5-nitropyridin-3-yl)sulfonyl)-4-(2-((1S,2S or 1R,2R)-2-(2-isopropylphenyl)cyclo-pentyl)-2,7-diazaspiro[3.5]nonan-7-yl) benzamide] |  | 9.00 |  | 7.80
